Measurements taken from patent publication US4283420A, “Pharmaceutically active cyclohexyl compounds and their preparation” (Labaz, priority 1978, dated 1981).
Like-named read-outs stand apart in the source and are kept apart here.

Columns and labels:
[1] = Sedative activity: Rotarod test; format: in vivo, mice (male); conditions: mouse, in vivo, po
Experimental: (§1) This test is used for the purpose of assessing the ability of the animals to coordinate their movements. It uses a wooden cylinder which has a diameter of 4.8 cm and revolves at a speed of 4 revolutions/minute. The test is carried out on male mice weighing about 22 g. The products are administered perorally (p.o.) to batches of 10 animals per dose. The animals are placed on the apparatus 15 minutes after administration of the product. The percentage of mice which lose their equilibrium reflex, that is to say which become incapable of retaining their balance on the cylinder for a period of 2 minutes, is noted.
(§2) Using the regression straight line method, a 50% neurotoxic dose (NTD 50) is calculated, which thus expresses the average level of the first neuromuscular effects under the influence of the studied product.

[2] = system: mouse; experiment: Ouabain seizure; format: in vivo; conditions: po, 0.25 h, read-out: Ouabain seizure, ED50
Experimental: Ouabain was administered intra-ventricularly at a dose of 5 γ/mouse in a volume of 0.02 ml.

[3] = system: male Swiss mice; experiment: Maximum electrical seizure; format: in vivo; conditions: for ED50: Mus musculus, po, 0.25 h, read-out: Maximum electrical seizure, ED50; for Maximum electrical seizure, % protection: peroral, 15 minutes
Text: Maximum electrical seizure
The technique used is that recommended by GOODMAN (L. S.), SING-GREWALD (M.), BROWN (V. C.) and […] (E. A.), Am.
The animals tested are male Swiss mice grouped into batches of 10. The normal threshold of the electric shock which is capable of causing tonic extension of the front paws is first determined for each animal.

[4] = system: male OFl mice; experiment: Pentetrazole seizure (mortality after i.p. pentetrazole 125 mg/kg); format: in vivo; conditions: for ED50: Mus musculus, po, 0.25 h; for Pentetrazole seizure, % protection: 15 minutes
Experimental: This test was carried out on batches of 10 male OFl mice which had fasted since the day before and were placed in individual cages, in accordance with the method of Cheymol (J.) Acta. Pharmacol., (1950), 2, 1-55.
The treatments were carried out perorally 15 minutes before intraperitoneal (i.p.) injection of a solution of pentetrazole (125 mg/kg).
The mortality is recorded 3 hours after this injection.
It is to be noted that the 50% effective doses (ED50), where these have been determined, were calculated by the method of MOOD (J. Am. Statist. Assoc., (1965), 60, 967-78).

[5] = Acute toxicity, peroral; conditions: mouse, in vivo, po
Experimental: In order to locate the boundary separating the pharmacological effects from the toxicity of the products, a very approximate assessment of the toxicity was carried out on mice (batches of 10 animals) after peroral treatment.

[6] = system: mice; experiment: β-Mercaptopropionic acid seizure; format: in vivo; conditions: for ED50: Mus musculus, po, 0.25 h, read-out: β-Mercaptopropionic acid seizure, ED50; for β-Mercaptopropionic acid seizure, % protection: at 400 mg/kg, peroral, 15 minutes
Experimental: β-Mercaptopropionic acid seizure
β-Mercaptopropionic acid is an inhibitor of glutamatedecarboxylase (GAD), which is an enzyme which catalyses the conversion of glutamate to γ-aminobutyric acid (GABA). Its action thus manifests itself in a lowering of the GABA level and the occurrence of general tonico-clonic seizures 3 to 4 minutes after it has been administered. β-Mercaptopropionic acid was administered to mice intraperitoneally at a dose of 40 mg/kg.

[7] = system: male mice; experiment: Sedative activity: Rotarod test; format: in vivo; conditions: peroral, mice
Experimental: as §1, §2

[8] = system: mice; experiment: Anoxia as a result of confinement; format: in vivo; conditions: Mus musculus, ip, read-out: Anoxia as a result of confinement, % increase in the survival time
Experimental: Anoxia as a result of confinement
Mice (in batches of 20) are placed in a 200 cm^3 hermetically sealed chamber (a wide-mouthed glass vessel) which is under normal pressure and has a normal content of atmospheric oxygen. All of the treatments are administered intraperitoneally immediately before introduction into the chamber. The animal is considered to be dead at the moment when breathing stops.
Since the wide-mouthed vessels chosen are very small, the motor activity of the animals is extremely low and this eliminates, in principle, the possibility of a positive result due to a sedative effect.
Therefore, the percentage increase in the survival time of the treated animals is noted, relative to the batch.

[9] = ouabain 5 γ/mouse intra-ventricularly, measured 15 minutes after peroral treatment
[10] = mice, measured 15 minutes after peroral treatment
[11] = Table IV, mice, measured 15 minutes after peroral treatment, read-out: Pentetrazole seizure, ED50
[12] = β-mercaptopropionic acid 40 mg/kg i.p., mice, 15 minutes after peroral treatment
[13] = read-out: Pentetrazole seizure, ED50
[14] = peroral, 15 minutes after administration, male mice, read-out: Sedative activity, Rotarod test, ED50

COCC1(C(N)=O)CCCCC1 [Example 31]
TD50 at 0.25 h [1]: 300 mg/kg | ED50 [2, 9]: 250 mg/kg | ED50 [3, 10]: 200 mg/kg | ED50 [4, 11]: 195 mg/kg | mortality ([5]; 500 mg/kg): 0%

CC(C)(Cl)C1(C(N)=O)CCCCC1 [Example 39, 1-(1-chloro-1-methylethyl)-1-cyclohexyl-carboxamide]
ED50 [6, 12]: 63 mg/kg | ED50 [4, 11]: 66 mg/kg

C=CC1(C(=O)[O-])CCCCC1.[Na+] [Example 37, Sodium 1-vinyl-1-cyclohexyl-carboxylate]
ED50 [4, 13]: 95 mg/kg

O=C(O)C1(CC#CBr)CCCCC1 [Example 35, 1-(3-bromo-2-propynyl)-1-cyclohexyl-carboxylic acid]
TD50 at 0.25 h [1]: 245 mg/kg | β-Mercaptopropionic acid seizure, % protection ([6]; mice): 30% | Maximum electrical seizure, % protection ([3]; at 735 mg/kg, mice): 20% | ED50 [4, 11]: 335 mg/kg | mortality ([5]; at 735 mg/kg, peroral, mice): 0%

CC(=O)CC1(C(=O)[O-])CCCCC1.[Na+] [Example 46, Sodium 1-acetonyl-1-cyclohexyl-carboxylate]
Rotarod test, % of failures ([7]; at 600 mg/kg): 0% | ED50 [6, 12]: 270 mg/kg | ED50 [2, 9]: > 900 mg/kg | ED50 [4, 13]: 300 mg/kg

CCC1(C(=O)O)CCCCC1 [Example 15]
ED50 ([4]; Table III, mice, peroral, 15 minutes after administration, read-out: DE 50, Pentetrazole crisis test): 120 mg/kg

O=C(CBr)CC1(C(=O)O)CCCCC1 [Example 47, 1-bromoacetonyl-1-cyclohexyl-carboxylic acid]
β-Mercaptopropionic acid seizure, % protection ([6]; mice): 30% | ILS at 130 mg/kg ([8]; at 130 mg/kg, intraperitoneal, mice): 24% | Pentetrazole seizure, % protection ([4]; at 395 mg/kg, peroral, mice): 0% | mortality ([5]; at 790 mg/kg, peroral, mice): 30%

NC(=O)C1(CBr)CCCCC1 [Example 26]
TD50 at 0.25 h [1, 14]: 125 mg/kg | ED50 [6, 12]: 46 mg/kg | ILS at 50 mg/kg [8]: 6% | ED50 [4, 13]: 75 mg/kg | mortality ([5]; at 500 mg/kg, peroral, mice): 0%

C=C(Cl)C1(C(=O)O)CCCCC1 [Example 18]
Rotarod test, % of failures ([7]; at 600 mg/kg): 0% | ED50 [2, 9]: 851 mg/kg | ILS at 260 mg/kg ([8]; at 260 mg/kg, intraperitoneal, mice): 40% | Pentetrazole seizure, % protection ([4]; at 200 mg/kg, peroral, mice): 40%

C#CCC1(C(N)=O)CCCCC1 [Example 30]
TD50 at 0.25 h [1, 14]: 125 mg/kg | ED50 [2, 9]: 170 mg/kg | ED50 [3, 10]: 91 mg/kg | ED50 [4, 13]: 65 mg/kg | mortality ([5]; at 500 mg/kg, peroral, mice): 20%

C=CCC1(C(=O)[O-])CCCCC1.[Na+] [Example 22, Sodium 1-allyl-1-cyclohexyl-carboxylate]
Rotarod test, % of failures ([7]; at 600 mg/kg): 20% | ED50 [2, 9]: 638 mg/kg | Maximum electrical seizure, % protection ([3]; at 200 mg/kg, mice): 80% | ILS at 240 mg/kg [8]: 59% | ED50 [4, 13]: 154 mg/kg

C=C(Cl)CC1(C(=O)O)CCCCC1 [Example 19]
Rotarod test, % of failures ([7]; at 700 mg/kg): 30% | ED50 [6, 12]: 300 mg/kg | ED50 [2, 9]: 579 mg/kg | ED50 [3, 10]: 366 mg/kg | ILS at 240 mg/kg ([8]; at 240 mg/kg, intraperitoneal, mice): 45% | ED50 [4, 11]: 94 mg/kg | mortality ([5]; 1100 mg/kg): 10%

O=C([O-])C1(Cc2ccccc2)CCCCC1.[Na+]
TD50 at 0.25 h [1, 14]: 650 mg/kg | ED50 [6]: 257 mg/kg | ED50 ([2]; Mus musculus): 638 mg/kg | ED50 [3]: 431 mg/kg | ILS at 170 mg/kg [8]: 44% | ED50 [4, 13]: 116 mg/kg | mortality ([5]; 1000 mg/kg, at 1,000 mg/kg, peroral, mice): 20%
